Experimental data taken from ChEMBL document CHEMBL1921793, “Bacterial production of the tunicate-derived antitumor cyclic depsipeptide didemnin B” (J Nat Prod, 2011).
Values after ≈ are worked out from the molar mass of the structure shown.

What was measured:
[1] = test system: A549; assay: Cytotoxicity against human A549 cells after 96 hrs by microplate reader analysis; format: functional, cell-based; details: A549, 96 h
[2] = test system: HT-29; assay: Cytotoxicity against human HT-29 cells after 96 hrs by microplate reader analysis; format: functional, cell-based; details: HT-29, 96 h

CC[C@H](C)[C@@H]1NC(=O)[C@@H](NC(=O)[C@@H](CC(C)C)N(C)C(=O)[C@@H]2CCCN2C(=O)[C@H](C)OC(C)=O)[C@H](C)OC(=O)[C@H](Cc2ccc(OC)cc2)N(C)C(=O)[C@@H]2CCCN2C(=O)[C@H](CC(C)C)NC(=O)[C@@H](C)C(=O)[C@H](C(C)C)OC(=O)C[C@@H]1O [NORDIDEMNIN B]
IC50 [1]: 7 ng/mL (≈ 6.06 nM)
IC50 [2]: 10 ng/mL (≈ 8.66 nM)
